Test results taken from PubChem BioAssay (NCI).
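Results reflect a 48-hour exposure of cells in 96-well plates to compound at five concentrations. At the GI50, growth is halved. TGI is the concentration that stops growth completely.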

Experiments:
Test in all cases: growth of human tumour cells (NCI), 48 h
[1] = tested on: 786-0 renal
[2] = tested on: A498 renal
[3] = tested on: A549 NSCLC
[4] = tested on: ACHN renal
[5] = tested on: BT-549 breast
[6] = tested on: CAKI-1 renal
[7] = tested on: CCRF-CEM leukemia
[8] = tested on: COLO 205 colon
[9] = tested on: DU-145 prostate
[10] = tested on: HCC-2998 colon
[11] = tested on: HCT-116 colon
[12] = tested on: HCT-15 colon
[13] = tested on: HL-60(TB) leukemia
[14] = tested on: HOP-62 NSCLC
[15] = tested on: HOP-92 NSCLC
[16] = tested on: HS 578T breast
[17] = tested on: HT29 colon
[18] = tested on: IGROV1 ovarian
[19] = tested on: K-562 leukemia
[20] = tested on: KM12 colon
[21] = tested on: LOX IMVI melanoma
[22] = tested on: M14 melanoma
[23] = tested on: MALME-3M melanoma
[24] = tested on: MCF7 breast
[25] = tested on: MDA-MB-231 breast
[26] = tested on: MDA-MB-435
[27] = tested on: MOLT-4 leukemia
[28] = tested on: NCI-H226 lung
[29] = tested on: NCI-H23 lung
[30] = tested on: NCI-H460 lung
[31] = tested on: NCI-H522 lung
[32] = tested on: NCI/ADR-RES ovarian
[33] = tested on: OVCAR-3 ovarian
[34] = tested on: OVCAR-4 ovarian
[35] = tested on: OVCAR-5 ovarian
[36] = tested on: OVCAR-8 ovarian
[37] = tested on: PC-3 prostate
[38] = tested on: RPMI-8226 leukemia
[39] = tested on: RXF 393 renal
[40] = tested on: SF-268 CNS
[41] = tested on: SF-295 CNS
[42] = tested on: SF-539 CNS
[43] = tested on: SK-MEL-2 melanoma
[44] = tested on: SK-MEL-28 melanoma
[45] = tested on: SK-MEL-5 melanoma
[46] = tested on: SK-OV-3 ovarian
[47] = tested on: SN12C renal
[48] = tested on: SNB-19 CNS
[49] = tested on: SNB-75 CNS
[50] = tested on: SR leukemia
[51] = tested on: SW-620 colon
[52] = tested on: T-47D breast
[53] = tested on: TK-10 renal
[54] = tested on: U251 CNS
[55] = tested on: UACC-257 melanoma
[56] = tested on: UACC-62 melanoma
[57] = tested on: UO-31 renal
[58] = tested on: EKVX NSCLC

C#Cc1nc2ccccc2c(=O)[nH]1
GI50 [1]: 582 nM | TGI [1]: 2120 nM | GI50 [2]: 1580 nM | TGI [2]: 3260 nM | GI50 [3]: 2960 nM | TGI [3]: 12900 nM | GI50 [4]: 336 nM | TGI [4]: 1320 nM | GI50 [5]: 222 nM | TGI [5]: 422 nM | GI50 [6]: 1430 nM | TGI [6]: 3470 nM | GI50 [7]: 237 nM | TGI [7]: 721 nM | GI50 [8]: 818 nM | TGI [8]: 2420 nM | GI50 [9]: 1630 nM | TGI [9]: 8250 nM | GI50 [10]: 1600 nM | TGI [10]: 3110 nM | GI50 [11]: 247 nM | TGI [11]: 716 nM | GI50 [12]: 224 nM | TGI [12]: 644 nM | GI50 [13]: 260 nM | TGI [13]: 807 nM | GI50 [14]: 1950 nM | TGI [14]: 5640 nM | GI50 [15]: 1140 nM | TGI [15]: 2610 nM | GI50 [16]: 1690 nM | TGI [16]: 7120 nM | GI50 [17]: 428 nM | TGI [17]: 1640 nM | GI50 [18]: 585 nM | TGI [18]: 1700 nM | GI50 [19]: 544 nM | TGI [19]: 20400 nM | GI50 [20]: 1390 nM | TGI [20]: 2940 nM | GI50 [21]: 168 nM | TGI [21]: 315 nM | GI50 [22]: 1070 nM | TGI [22]: 3060 nM | GI50 [23]: 1230 nM | TGI [23]: 3040 nM | GI50 [24]: 282 nM | TGI [24]: 2750 nM | GI50 [25]: 318 nM | TGI [25]: 1490 nM | GI50 [26]: 510 nM | TGI [26]: 2130 nM | GI50 [27]: 316 nM | TGI [27]: 994 nM | GI50 [28]: 513 nM | TGI [28]: 11700 nM | GI50 [29]: 1690 nM | TGI [29]: 4770 nM | GI50 [30]: 1790 nM | TGI [30]: 7660 nM | GI50 [31]: 765 nM | TGI [31]: 2180 nM | GI50 [32]: 927 nM | TGI [32]: 8190 nM | GI50 [33]: 262 nM | TGI [33]: 643 nM | GI50 [34]: 1380 nM | TGI [34]: 2790 nM | GI50 [35]: 1040 nM | TGI [35]: 2590 nM | GI50 [36]: 897 nM | TGI [36]: 8190 nM | GI50 [37]: 674 nM | TGI [37]: 2540 nM | GI50 [38]: 213 nM | TGI [38]: 635 nM | GI50 [39]: 249 nM | TGI [39]: 871 nM | GI50 [40]: 1540 nM | TGI [40]: 4570 nM | GI50 [41]: 3720 nM | TGI [41]: 20200 nM | GI50 [42]: 345 nM | TGI [42]: 1420 nM | GI50 [43]: 2150 nM | TGI [43]: 6190 nM | GI50 [44]: 861 nM | TGI [44]: 3420 nM | GI50 [45]: 633 nM | TGI [45]: 2010 nM | GI50 [46]: 6540 nM | TGI [46]: 40100 nM | GI50 [47]: 331 nM | TGI [47]: 1260 nM | GI50 [48]: 4190 nM | TGI [48]: 18000 nM | GI50 [49]: 1800 nM | TGI [49]: 5160 nM | GI50 [50]: 311 nM | TGI [50]: 2600 nM | GI50 [51]: 291 nM | TGI [51]: 1120 nM | GI50 [52]: 1360 nM | TGI [52]: 3600 nM | GI50 [53]: 546 nM | TGI [53]: 11200 nM | GI50 [54]: 1660 nM | TGI [54]: 4280 nM | GI50 [55]: 505 nM | TGI [55]: 3150 nM | GI50 [56]: 286 nM | TGI [56]: 1030 nM | GI50 [57]: 383 nM | TGI [57]: 1610 nM

Cc1nc(Nc2ccccn2)sc1C(=O)/C=C/c1ccc(Cl)cc1
GI50 [1]: 549 nM | TGI [1]: > 47200 nM | GI50 [2]: 143 nM | TGI [2]: 626 nM | GI50 [3]: 426 nM | TGI [3]: > 100000 nM | GI50 [4]: 559 nM | TGI [4]: 31000 nM | GI50 [5]: 344 nM | TGI [5]: 8640 nM | GI50 [6]: 460 nM | TGI [6]: 13400 nM | GI50 [7]: 445 nM | TGI [7]: > 100000 nM | GI50 [8]: 322 nM | TGI [8]: 1350 nM | GI50 [9]: 383 nM | TGI [9]: > 71500 nM | GI50 [58]: 846 nM | TGI [58]: > 100000 nM | GI50 [10]: 383 nM | TGI [10]: 9620 nM | GI50 [11]: 381 nM | TGI [11]: > 51800 nM | GI50 [12]: 355 nM | TGI [12]: > 100000 nM | GI50 [13]: 353 nM | GI50 [14]: 574 nM | TGI [14]: > 100000 nM | GI50 [15]: 1210 nM | TGI [15]: 31400 nM | GI50 [16]: 398 nM | TGI [16]: > 100000 nM | GI50 [17]: 470 nM | TGI [17]: 47500 nM | GI50 [18]: 413 nM | TGI [18]: 30600 nM | GI50 [19]: 395 nM | TGI [19]: > 100000 nM | GI50 [20]: 377 nM | TGI [20]: 15900 nM | GI50 [21]: 458 nM | TGI [21]: > 40800 nM | GI50 [22]: 342 nM | TGI [22]: > 67100 nM | GI50 [23]: 734 nM | TGI [23]: 43800 nM | GI50 [24]: 344 nM | TGI [24]: > 100000 nM | GI50 [25]: 366 nM | TGI [25]: 3580 nM | GI50 [26]: 201 nM | TGI [26]: 515 nM | GI50 [27]: 592 nM | TGI [27]: > 100000 nM | GI50 [28]: 1090 nM | TGI [28]: 26000 nM | GI50 [29]: 567 nM | TGI [29]: > 100000 nM | GI50 [30]: 353 nM | TGI [30]: > 100000 nM | GI50 [31]: 241 nM | GI50 [32]: 340 nM | TGI [32]: > 100000 nM | GI50 [33]: 325 nM | TGI [33]: 5480 nM | GI50 [34]: 778 nM | TGI [34]: > 100000 nM | GI50 [35]: 587 nM | TGI [35]: > 79400 nM | GI50 [36]: 472 nM | TGI [36]: > 100000 nM | GI50 [37]: 368 nM | TGI [37]: > 100000 nM | GI50 [38]: 523 nM | TGI [38]: > 100000 nM | GI50 [40]: 974 nM | TGI [40]: > 100000 nM | GI50 [41]: 308 nM | TGI [41]: 23000 nM | GI50 [42]: 252 nM | TGI [42]: 812 nM | GI50 [43]: 1360 nM | TGI [43]: > 100000 nM | GI50 [44]: 2190 nM | TGI [44]: > 100000 nM | GI50 [45]: 339 nM | TGI [45]: 1430 nM | GI50 [46]: 494 nM | TGI [46]: > 100000 nM | GI50 [47]: 547 nM | TGI [47]: > 47400 nM | GI50 [48]: 556 nM | TGI [48]: > 100000 nM | GI50 [49]: 296 nM | TGI [49]: 24700 nM | GI50 [50]: 518 nM | TGI [50]: > 100000 nM | GI50 [51]: 445 nM | TGI [51]: > 100000 nM | GI50 [52]: 8680 nM | TGI [52]: > 100000 nM | GI50 [53]: 1090 nM | TGI [53]: 24400 nM | GI50 [54]: 370 nM | TGI [54]: > 47300 nM | GI50 [55]: 22800 nM | TGI [55]: > 100000 nM | GI50 [56]: 631 nM | TGI [56]: 49800 nM | GI50 [57]: 662 nM | TGI [57]: 15000 nM
